Measured values: patent US12365696B2, “Small-molecule focal adhesion kinase (FAK) inhibitors” (DANA-FARBER CANCER INSTITUTE, INC., priority 2019, dated 2025)

Legend:
Assay in all cases: KINOMEscan
Assay type in all cases: binding
SRC = SRC (Homo sapiens (Human), UniProt P12931); conditions: 10000 nM, read-out: Percent Control
KIT(L576P) = KIT(L576P) (Homo sapiens (Human), UniProt P10721, L576P); conditions: 10000 nM, read-out: Percent Control
MAP4K4 = MAP4K4 (Homo sapiens (Human), UniProt O95819); conditions: MAP4K4, 10000 nM; read-out: Percent Control
Sequence of MAP4K4 (O95819 whole entry): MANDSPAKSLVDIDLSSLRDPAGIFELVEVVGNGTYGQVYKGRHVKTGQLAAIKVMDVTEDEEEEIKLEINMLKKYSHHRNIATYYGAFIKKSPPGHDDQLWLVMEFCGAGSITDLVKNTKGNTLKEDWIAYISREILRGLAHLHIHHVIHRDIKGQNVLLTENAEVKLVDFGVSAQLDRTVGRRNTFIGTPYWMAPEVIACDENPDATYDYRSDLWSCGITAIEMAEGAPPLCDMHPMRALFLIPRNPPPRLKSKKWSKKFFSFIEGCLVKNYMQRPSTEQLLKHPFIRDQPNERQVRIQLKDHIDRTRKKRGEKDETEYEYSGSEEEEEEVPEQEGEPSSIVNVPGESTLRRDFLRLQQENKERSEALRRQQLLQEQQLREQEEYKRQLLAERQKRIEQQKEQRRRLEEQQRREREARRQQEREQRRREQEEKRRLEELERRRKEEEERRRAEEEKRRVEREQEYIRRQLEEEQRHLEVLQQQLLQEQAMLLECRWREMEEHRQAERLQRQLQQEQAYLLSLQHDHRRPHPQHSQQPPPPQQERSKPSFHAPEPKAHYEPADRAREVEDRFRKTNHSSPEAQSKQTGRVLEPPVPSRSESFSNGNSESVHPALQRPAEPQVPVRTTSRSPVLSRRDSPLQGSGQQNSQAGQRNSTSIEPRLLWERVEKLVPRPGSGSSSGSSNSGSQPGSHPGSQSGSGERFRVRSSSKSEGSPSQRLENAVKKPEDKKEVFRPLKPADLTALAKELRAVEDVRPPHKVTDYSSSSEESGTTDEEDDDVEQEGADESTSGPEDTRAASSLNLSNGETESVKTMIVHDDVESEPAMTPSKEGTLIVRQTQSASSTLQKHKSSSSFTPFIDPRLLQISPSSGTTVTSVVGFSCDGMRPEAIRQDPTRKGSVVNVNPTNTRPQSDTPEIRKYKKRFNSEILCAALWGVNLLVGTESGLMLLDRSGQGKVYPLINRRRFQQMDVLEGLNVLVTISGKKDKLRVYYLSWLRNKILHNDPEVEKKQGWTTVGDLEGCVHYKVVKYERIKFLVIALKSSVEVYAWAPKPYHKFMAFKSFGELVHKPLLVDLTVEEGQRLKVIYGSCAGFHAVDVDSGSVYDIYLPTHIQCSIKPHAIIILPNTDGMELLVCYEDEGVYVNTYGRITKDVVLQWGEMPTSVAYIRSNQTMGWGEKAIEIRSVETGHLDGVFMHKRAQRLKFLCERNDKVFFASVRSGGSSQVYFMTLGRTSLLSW

ACVR1B = ACVR1B (Homo sapiens (Human), UniProt P36896); conditions: 10000 nM, read-out: Percent Control
NEK5 = NEK5 (Homo sapiens (Human), UniProt Q6P3R8); conditions: NEK5, 10000 nM; read-out: Percent Control
PIK4CB = PIK4CB (Homo sapiens (Human), UniProt Q9UBF8); conditions: 10000 nM, read-out: Percent Control
[1] = biological target: ABL1(T315I)-phosphorylated (Homo sapiens (Human), UniProt P00519, T315I); conditions: 10000 nM, read-out: Percent Control
MEK6 = MEK6 (Homo sapiens (Human), UniProt P52564); conditions: MEK6, 10000 nM; read-out: Percent Control
Sequence of MEK6 (P52564 whole entry): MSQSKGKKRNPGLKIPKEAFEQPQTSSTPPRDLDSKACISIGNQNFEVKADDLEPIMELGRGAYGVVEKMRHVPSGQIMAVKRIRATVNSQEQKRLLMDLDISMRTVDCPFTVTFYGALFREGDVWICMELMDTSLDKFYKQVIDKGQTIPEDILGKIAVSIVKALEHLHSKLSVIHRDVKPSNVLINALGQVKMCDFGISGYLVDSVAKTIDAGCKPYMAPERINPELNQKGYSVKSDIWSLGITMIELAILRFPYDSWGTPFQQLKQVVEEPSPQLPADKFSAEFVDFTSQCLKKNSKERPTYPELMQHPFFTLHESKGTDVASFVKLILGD

INSRR = INSRR (Homo sapiens (Human), UniProt P14616); conditions: 10000 nM, read-out: Percent Control
PIP5K2B = PIP5K2B (Homo sapiens (Human), UniProt P78356); conditions: 10000 nM, read-out: Percent Control
MAP4K2 = MAP4K2 (Homo sapiens (Human), UniProt Q12851); conditions: MAP4K2, 10000 nM; read-out: Percent Control
DCAMKL1 = DCAMKL1 (Homo sapiens (Human), UniProt O15075); conditions: DCAMKL1, 10000 nM; read-out: Percent Control
Sequence of DCAMKL1 (O15075 whole entry, looked up): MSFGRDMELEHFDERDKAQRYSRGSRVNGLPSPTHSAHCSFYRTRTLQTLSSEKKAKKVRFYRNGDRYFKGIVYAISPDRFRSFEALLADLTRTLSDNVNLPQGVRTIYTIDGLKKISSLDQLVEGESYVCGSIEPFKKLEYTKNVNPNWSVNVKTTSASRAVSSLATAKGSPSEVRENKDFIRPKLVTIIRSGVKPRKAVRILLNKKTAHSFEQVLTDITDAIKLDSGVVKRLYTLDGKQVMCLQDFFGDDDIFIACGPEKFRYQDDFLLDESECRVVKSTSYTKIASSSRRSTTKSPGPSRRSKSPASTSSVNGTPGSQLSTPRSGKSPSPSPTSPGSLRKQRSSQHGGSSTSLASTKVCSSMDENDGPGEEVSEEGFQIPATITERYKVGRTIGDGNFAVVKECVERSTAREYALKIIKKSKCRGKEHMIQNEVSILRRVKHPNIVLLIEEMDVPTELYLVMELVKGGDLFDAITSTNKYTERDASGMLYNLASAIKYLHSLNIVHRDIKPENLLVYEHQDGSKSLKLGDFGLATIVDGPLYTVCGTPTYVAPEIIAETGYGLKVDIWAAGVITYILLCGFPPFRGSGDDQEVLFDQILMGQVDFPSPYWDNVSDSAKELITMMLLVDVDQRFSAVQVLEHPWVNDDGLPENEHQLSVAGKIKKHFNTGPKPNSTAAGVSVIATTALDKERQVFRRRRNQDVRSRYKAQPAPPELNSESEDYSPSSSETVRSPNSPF

CDK4-cyclinD3 = CDK4-cyclinD3 (Homo sapiens (Human), UniProt P11802); conditions: CDK4-cyclinD3, 10000 nM; read-out: Percent Control
EGFR(S752-I759del) = EGFR(S752-I759del) (Homo sapiens (Human), UniProt P00533, DEL752-759); conditions: 10000 nM, read-out: Percent Control
Sequence of EGFR(S752-I759del) (P00533 other isoform, or with tags, fused parts or gaps, stated change not applied): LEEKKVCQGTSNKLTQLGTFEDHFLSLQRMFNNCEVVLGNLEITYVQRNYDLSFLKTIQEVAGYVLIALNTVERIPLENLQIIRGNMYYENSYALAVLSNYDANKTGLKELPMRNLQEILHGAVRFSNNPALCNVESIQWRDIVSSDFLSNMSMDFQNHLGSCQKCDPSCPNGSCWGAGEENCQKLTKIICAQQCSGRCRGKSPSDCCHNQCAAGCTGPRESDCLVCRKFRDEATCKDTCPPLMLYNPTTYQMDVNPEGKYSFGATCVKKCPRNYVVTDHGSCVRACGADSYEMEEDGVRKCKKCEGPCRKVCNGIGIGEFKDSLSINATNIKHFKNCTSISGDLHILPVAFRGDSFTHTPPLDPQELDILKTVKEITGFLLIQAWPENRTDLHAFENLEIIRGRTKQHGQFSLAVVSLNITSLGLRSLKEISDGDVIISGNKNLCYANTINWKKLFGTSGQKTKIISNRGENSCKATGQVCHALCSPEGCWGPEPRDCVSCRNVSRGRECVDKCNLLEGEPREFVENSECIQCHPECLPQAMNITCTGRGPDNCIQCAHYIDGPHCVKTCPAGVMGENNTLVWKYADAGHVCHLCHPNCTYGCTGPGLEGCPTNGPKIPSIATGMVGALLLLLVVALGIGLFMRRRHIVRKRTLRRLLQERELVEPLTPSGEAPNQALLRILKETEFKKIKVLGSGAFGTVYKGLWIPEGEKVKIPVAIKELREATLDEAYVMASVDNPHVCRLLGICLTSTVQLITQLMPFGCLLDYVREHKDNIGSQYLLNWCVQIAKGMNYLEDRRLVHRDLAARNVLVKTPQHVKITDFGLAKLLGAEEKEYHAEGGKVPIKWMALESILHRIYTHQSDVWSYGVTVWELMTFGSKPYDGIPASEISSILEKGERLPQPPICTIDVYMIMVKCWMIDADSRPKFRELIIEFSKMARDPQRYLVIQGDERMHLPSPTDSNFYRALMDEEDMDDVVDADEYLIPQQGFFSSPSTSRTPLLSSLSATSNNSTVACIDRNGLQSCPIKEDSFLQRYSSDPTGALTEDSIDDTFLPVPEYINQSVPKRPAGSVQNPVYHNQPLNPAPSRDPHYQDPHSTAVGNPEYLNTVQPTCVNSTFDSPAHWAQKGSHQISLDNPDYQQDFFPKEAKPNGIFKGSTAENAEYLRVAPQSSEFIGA

DCAMKL2 = DCAMKL2 (Homo sapiens (Human), UniProt Q8N568); conditions: DCAMKL2, 10000 nM; read-out: Percent Control
PIM1 = PIM1 (Homo sapiens (Human), UniProt P11309); conditions: PIM1, 10000 nM; read-out: Percent Control
CDK4-cyclinD1 = CDK4-cyclinD1 (Homo sapiens (Human), UniProt P11802); conditions: CDK4-cyclinD1, 10000 nM; read-out: Percent Control
ITK = ITK (Homo sapiens (Human), UniProt Q08881); conditions: 10000 nM, read-out: Percent Control
Sequence of ITK (Q08881 whole entry): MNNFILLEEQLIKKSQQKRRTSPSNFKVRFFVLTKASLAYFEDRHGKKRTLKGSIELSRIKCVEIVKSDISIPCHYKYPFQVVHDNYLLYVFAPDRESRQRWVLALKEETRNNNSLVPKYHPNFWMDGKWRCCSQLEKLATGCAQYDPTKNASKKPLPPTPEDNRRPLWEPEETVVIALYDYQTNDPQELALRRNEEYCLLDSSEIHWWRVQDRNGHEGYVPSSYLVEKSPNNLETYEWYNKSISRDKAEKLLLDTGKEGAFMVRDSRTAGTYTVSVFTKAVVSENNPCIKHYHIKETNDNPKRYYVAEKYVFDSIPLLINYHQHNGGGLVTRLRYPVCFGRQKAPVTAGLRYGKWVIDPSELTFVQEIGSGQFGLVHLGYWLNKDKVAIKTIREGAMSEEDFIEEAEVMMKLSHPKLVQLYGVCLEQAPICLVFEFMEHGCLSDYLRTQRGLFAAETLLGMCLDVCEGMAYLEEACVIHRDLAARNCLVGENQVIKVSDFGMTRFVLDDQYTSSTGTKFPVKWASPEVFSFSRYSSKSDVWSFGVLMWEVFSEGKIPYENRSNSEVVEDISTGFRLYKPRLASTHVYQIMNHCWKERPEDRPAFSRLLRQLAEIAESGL

HIPK1 = HIPK1 (Homo sapiens (Human), UniProt Q86Z02); conditions: HIPK1, 10000 nM; read-out: Percent Control
ULK3 = ULK3 (Homo sapiens (Human), UniProt Q6PHR2); conditions: ULK3, 10000 nM; read-out: Percent Control
RIPK1 = RIPK1 (Homo sapiens (Human), UniProt Q13546); conditions: RIPK1, 10000 nM; read-out: Percent Control
ERK3 = ERK3 (Homo sapiens (Human), UniProt Q16659); conditions: ERK3, 10000 nM; read-out: Percent Control
YANK2 = YANK2 (Homo sapiens (Human), UniProt Q9NY57); conditions: YANK2, 10000 nM; read-out: Percent Control
FLT3(ITD) = conditions: 10000 nM
AURKA = AURKA (Homo sapiens (Human), UniProt O14965); conditions: 10000 nM, read-out: Percent Control
ACVRL1 = ACVRL1 (Homo sapiens (Human), UniProt P37023); conditions: ACVRL1, 10000 nM; read-out: Percent Control
MEK4 = MEK4 (Homo sapiens (Human), UniProt P45985); conditions: MEK4, 10000 nM; read-out: Percent Control
MLK1 = MLK1 (Homo sapiens (Human), UniProt P80192); conditions: MLK1, 10000 nM; read-out: Percent Control
EPHB2 = EPHB2 (Homo sapiens (Human), UniProt P29323); conditions: EPHB2, 10000 nM; read-out: Percent Control
[2] = biological target: ABL1(T315I)-nonphosphorylated (Homo sapiens (Human), UniProt P00519, T315I); conditions: 10000 nM, read-out: Percent Control
MUSK = MUSK (Homo sapiens (Human), UniProt O15146); conditions: 10000 nM, read-out: Percent Control
[3] = biological target: JAK1(JH2domain-pseudokinase) (Homo sapiens (Human), UniProt P23458); conditions: 10000 nM, read-out: Percent Control
Sequence of JAK1(JH2domain-pseudokinase) (P23458 583-855): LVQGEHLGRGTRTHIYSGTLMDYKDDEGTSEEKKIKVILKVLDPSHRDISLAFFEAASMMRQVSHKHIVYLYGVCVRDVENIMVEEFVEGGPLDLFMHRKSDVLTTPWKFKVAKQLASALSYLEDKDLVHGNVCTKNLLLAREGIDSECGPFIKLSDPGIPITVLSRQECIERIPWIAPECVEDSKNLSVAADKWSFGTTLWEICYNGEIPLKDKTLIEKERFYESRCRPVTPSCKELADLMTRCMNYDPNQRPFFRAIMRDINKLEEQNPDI

ERBB3 = ERBB3 (Homo sapiens (Human), UniProt P21860); conditions: ERBB3, 10000 nM; read-out: Percent Control
EGFR(L858R) = EGFR(L858R) (Homo sapiens (Human), UniProt P00533, L858R); conditions: 10000 nM, read-out: Percent Control

Sequence of SRC (P12931 whole entry, looked up): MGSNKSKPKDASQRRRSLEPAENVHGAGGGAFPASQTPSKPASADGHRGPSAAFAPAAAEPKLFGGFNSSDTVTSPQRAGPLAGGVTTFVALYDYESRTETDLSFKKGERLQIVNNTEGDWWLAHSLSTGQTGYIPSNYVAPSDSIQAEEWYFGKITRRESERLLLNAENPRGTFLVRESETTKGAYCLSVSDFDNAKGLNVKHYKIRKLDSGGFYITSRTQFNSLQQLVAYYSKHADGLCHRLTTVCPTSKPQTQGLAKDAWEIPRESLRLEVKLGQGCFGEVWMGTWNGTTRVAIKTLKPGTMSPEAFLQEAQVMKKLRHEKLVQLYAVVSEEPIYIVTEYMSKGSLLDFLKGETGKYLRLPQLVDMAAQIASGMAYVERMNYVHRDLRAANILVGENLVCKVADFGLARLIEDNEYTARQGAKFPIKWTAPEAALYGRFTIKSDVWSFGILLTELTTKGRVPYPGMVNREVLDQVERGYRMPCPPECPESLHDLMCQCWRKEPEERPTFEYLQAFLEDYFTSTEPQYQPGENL

SMILES | remaining binding at 10 µM (SRC) [%] | remaining binding at 10 µM (KIT(L576P)) [%] | remaining binding at 10 µM (MAP4K4) [%] | remaining binding at 10 µM (ACVR1B) [%] | remaining binding at 10 µM (NEK5) [%] | remaining binding at 10 µM (PIK4CB) [%] | remaining binding at 10 µM [1] [%] | remaining binding at 10 µM (MEK6) [%] | remaining binding at 10 µM (INSRR) [%] | remaining binding at 10 µM (PIP5K2B) [%] | remaining binding at 10 µM (MAP4K2) [%] | remaining binding at 10 µM (DCAMKL1) [%] | remaining binding at 10 µM (CDK4-cyclinD3) [%] | remaining binding at 10 µM (EGFR(S752-I759del)) [%] | remaining binding at 10 µM (DCAMKL2) [%] | remaining binding at 10 µM (PIM1) [%] | remaining binding at 10 µM (CDK4-cyclinD1) [%] | remaining binding at 10 µM (ITK) [%] | remaining binding at 10 µM (HIPK1) [%] | remaining binding at 10 µM (ULK3) [%] | further results
COc1cc(N2CCC(N3CCN(C)CC3)CC2)ccc1Nc1ncc2c(n1)N(C)c1sc(C)nc1C(=O)N2 [Compound 3, 6-((2-methoxy-4-(4-(4-methylpiperazin-1-yl)piperidin-1-yl)phenyl)amino)-2,4-dimethyl-4,9-dihydro-10H-pyrimido[5,4-b]thiazolo[5,4-e][1,4]diazepin-10-one] | 63 | 47 | 79 | 80 | 97 | 85 | 93 | 100 | 84 | 76 | 100 | 91 | 95 | 47 | 87 | 70 | 100 | 87 | 83 | 95 | remaining binding at 10 µM (RIPK1): 100%; remaining binding at 10 µM (ERK3): 89%; remaining binding at 10 µM (YANK2): 85%; Percent Control (FLT3(ITD)): 83%; remaining binding at 10 µM (AURKA): 92%; remaining binding at 10 µM (ACVRL1): 96%; remaining binding at 10 µM (MEK4): 100%; remaining binding at 10 µM (MLK1): 94%; remaining binding at 10 µM (EPHB2): 53%; remaining binding at 10 µM [2]: 100%; remaining binding at 10 µM (MUSK): 92%; remaining binding at 10 µM [3]: 85%; remaining binding at 10 µM (ERBB3): 100%; remaining binding at 10 µM (EGFR(L858R)): 79%
COc1cc(N2CCC(N3CCN(C)CC3)CC2)ccc1Nc1ncc2c(n1)N(C)c1sc(C)nc1C(=O)N2C [Compound 5, 6-((2-methoxy-4-(4-(4-methylpiperazin-1-yl)piperidin-1-yl)phenyl)amino)-2,4,9-trimethyl-4,9-dihydro-10H-pyrimido[5,4-b]thiazolo[5,4-e][1,4]diazepin-10-one] | 100 | 100 | 100 | 95 | 100 | 100 | 98 | 98 | 22 | 39 | 94 | 7.9 | 100 | 100 | 3 | 97 | 90 | 99 | 94 | 97 | remaining binding at 10 µM (RIPK1): 96%; remaining binding at 10 µM (ERK3): 100%; remaining binding at 10 µM (YANK2): 100%; Percent Control (FLT3(ITD)): 100%; remaining binding at 10 µM (AURKA): 78%; remaining binding at 10 µM (ACVRL1): 99%; remaining binding at 10 µM (MEK4): 100%; remaining binding at 10 µM (MLK1): 41%; remaining binding at 10 µM (EPHB2): 99%; remaining binding at 10 µM [2]: 100%; remaining binding at 10 µM (MUSK): 100%; remaining binding at 10 µM [3]: 89%; remaining binding at 10 µM (ERBB3): 100%; remaining binding at 10 µM (EGFR(L858R)): 100%
